ChEMBL document CHEMBL1201862, “PubChem BioAssay data set” (2004)
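Briefly, cells in 96-well plates were exposed to five compound concentrations for 48 h, and endpoints were estimated by linear interpolation. Here, GI50 denotes the concentration required for 50% inhibition of growth.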 Calls of active or inactive are those of the source. No stated cut-off is given here; in the data, active = GI50 up to about 1.1 µM and inactive = higher.

Key:
Test in all cases: NCI-60 cell line screen, 48 h
786-0 = tested on: 786-0
A498 = tested on: A498
A549 = tested on: A549
ACHN = tested on: ACHN
CCRF-CEM = tested on: CCRF-CEM
COLO 205 = tested on: COLO 205
DU-145 = tested on: DU-145
EKVX = tested on: EKVX
HCC 2998 = tested on: HCC 2998
HCT-116 = tested on: HCT-116
HCT-15 = tested on: HCT-15
HL-60 = tested on: HL-60
HOP-62 = tested on: HOP-62
HT-29 = tested on: HT-29
Hs-578T = tested on: Hs-578T
IGROV-1 = tested on: IGROV-1
K562 = tested on: K562
KM12 = tested on: KM12
LOX IMVI = tested on: LOX IMVI
M14 = tested on: M14
MCF7 = tested on: MCF7
MDA-MB-231 = tested on: MDA-MB-231
MDA-MB-435 = tested on: MDA-MB-435
MDA-N = tested on: MDA-N
MOLT-4 = tested on: MOLT-4
NCI-H226 = tested on: NCI-H226
NCI-H23 = tested on: NCI-H23
NCI-H460 = tested on: NCI-H460
NCI-H522 = tested on: NCI-H522
NCI/ADR-RES = tested on: NCI/ADR-RES
OVCAR-3 = tested on: OVCAR-3
OVCAR-4 = tested on: OVCAR-4
OVCAR-5 = tested on: OVCAR-5
OVCAR-8 = tested on: OVCAR-8
PC-3 = tested on: PC-3
RPMI-8226 = tested on: RPMI-8226
RXF 393 = tested on: RXF 393
SF-268 = tested on: SF-268
SF-295 = tested on: SF-295
SF-539 = tested on: SF-539
SK-MEL-28 = tested on: SK-MEL-28
SK-MEL-2 = tested on: SK-MEL-2
SK-MEL-5 = tested on: SK-MEL-5
SK-OV-3 = tested on: SK-OV-3
SN12C = tested on: SN12C
SNB-19 = tested on: SNB-19
SNB-75 = tested on: SNB-75
SW-620 = tested on: SW-620
T47D = tested on: T47D
TK-10 = tested on: TK-10
U-251 = tested on: U-251
UACC-257 = tested on: UACC-257
UACC-62 = tested on: UACC-62
UO-31 = tested on: UO-31
CAKI-1 = tested on: CAKI-1
HOP-92 = tested on: HOP-92
Malme-3M = tested on: Malme-3M
SR = tested on: SR

## CN1N=C(c2ccncc2)OC1c1ccc(C(F)(F)F)cc1 (stereo not drawn)
786-0
  GI50: 98.4 µM (inactive)
A498
  GI50: > 100 µM (inactive)
A549
  GI50: > 100 µM (inactive)
ACHN
  GI50: > 100 µM (inactive)
CCRF-CEM
  GI50: > 100 µM (inactive)
COLO 205
  GI50: > 100 µM (inactive)
DU-145
  GI50: > 100 µM (inactive)
EKVX
  GI50: 44.6 µM (inactive)
HCC 2998
  GI50: > 100 µM (inactive)
HCT-116
  GI50: > 100 µM (inactive)
HCT-15
  GI50: > 100 µM
HL-60
  GI50: > 100 µM (inactive)
HOP-62
  GI50: 82.8 µM (inactive)
HT-29
  GI50: > 100 µM (inactive)
Hs-578T
  GI50: > 100 µM (inactive)
IGROV-1
  GI50: > 100 µM (inactive)
K562
  GI50: > 100 µM (inactive)
KM12
  GI50: > 100 µM (inactive)
LOX IMVI
  GI50: > 100 µM (inactive)
M14
  GI50: > 100 µM (inactive)
MCF7
  GI50: > 100 µM (inactive)
MDA-MB-231
  GI50: 63.5 µM (inactive)
MDA-MB-435
  GI50: > 100 µM (inactive)
MDA-N
  GI50: > 100 µM (inactive)
MOLT-4
  GI50: > 100 µM (inactive)
NCI-H226
  GI50: 39.1 µM (inactive)
NCI-H23
  GI50: > 100 µM (inactive)
NCI-H460
  GI50: > 100 µM (inactive)
NCI-H522
  GI50: > 100 µM (inactive)
NCI/ADR-RES
  GI50: > 100 µM (inactive)
OVCAR-3
  GI50: > 100 µM (inactive)
OVCAR-4
  GI50: > 100 µM (inactive)
OVCAR-5
  GI50: > 100 µM (inactive)
OVCAR-8
  GI50: > 100 µM (inactive)
PC-3
  GI50: > 100 µM (inactive)
RPMI-8226
  GI50: > 100 µM (inactive)
RXF 393
  GI50: > 100 µM (inactive)
SF-268
  GI50: > 100 µM (inactive)
SF-295
  GI50: > 100 µM (inactive)
SF-539
  GI50: > 100 µM (inactive)
SK-MEL-28
  GI50: > 100 µM (inactive)
SK-MEL-2
  GI50: > 100 µM (inactive)
SK-MEL-5
  GI50: > 100 µM (inactive)
SK-OV-3
  GI50: > 100 µM (inactive)
SN12C
  GI50: > 100 µM (inactive)
SNB-19
  GI50: > 100 µM (inactive)
SNB-75
  GI50: 0.491 µM (active)
SW-620
  GI50: > 100 µM (inactive)
T47D
  GI50: 0.495 µM (active)
TK-10
  GI50: > 100 µM (inactive)
U-251
  GI50: 91 µM (inactive)
UACC-257
  GI50: > 100 µM (inactive)
UACC-62
  GI50: > 100 µM (inactive)
UO-31
  GI50: > 100 µM (inactive)

## Cc1ccc(S(=O)(=O)n2cc(-c3cc(C(F)(F)F)ccn3)c3cc(Br)ccc32)cc1
786-0
  GI50: 13.9 µM (inactive)
A498
  GI50: 18.2 µM (inactive)
A549
  GI50: 21.1 µM (inactive)
ACHN
  GI50: 11.4 µM (inactive)
CAKI-1
  GI50: 16.3 µM (inactive)
CCRF-CEM
  GI50: > 100 µM (inactive)
COLO 205
  GI50: 59.2 µM (inactive)
DU-145
  GI50: 17.9 µM (inactive)
EKVX
  GI50: 29.6 µM (inactive)
HCC 2998
  GI50: 16.4 µM (inactive)
HCT-116
  GI50: 14.5 µM (inactive)
HCT-15
  GI50: 21.9 µM
HL-60
  GI50: > 100 µM (inactive)
HOP-62
  GI50: 11.8 µM (inactive)
HOP-92
  GI50: 13.7 µM (inactive)
HT-29
  GI50: 49.1 µM (inactive)
Hs-578T
  GI50: 15 µM (inactive)
K562
  GI50: > 100 µM (inactive)
KM12
  GI50: 38.9 µM (inactive)
LOX IMVI
  GI50: 28.1 µM (inactive)
M14
  GI50: 27.7 µM (inactive)
MCF7
  GI50: 5.26 µM (inactive)
MDA-MB-231
  GI50: 17.3 µM (inactive)
MDA-MB-435
  GI50: 46.2 µM (inactive)
MDA-N
  GI50: 45.2 µM (inactive)
MOLT-4
  GI50: > 100 µM (inactive)
Malme-3M
  GI50: 20.7 µM (inactive)
NCI-H226
  GI50: 19 µM (inactive)
NCI-H23
  GI50: 14.5 µM (inactive)
NCI-H460
  GI50: 36.5 µM (inactive)
NCI/ADR-RES
  GI50: 34.2 µM (inactive)
OVCAR-3
  GI50: 12.2 µM (inactive)
OVCAR-4
  GI50: 12.3 µM (inactive)
OVCAR-5
  GI50: 50 µM (inactive)
PC-3
  GI50: 18.2 µM (inactive)
RPMI-8226
  GI50: 69.2 µM (inactive)
RXF 393
  GI50: 17.8 µM (inactive)
SF-268
  GI50: 27.4 µM (inactive)
SF-295
  GI50: 17.9 µM (inactive)
SF-539
  GI50: 17.1 µM (inactive)
SK-MEL-28
  GI50: 20.7 µM (inactive)
SK-MEL-2
  GI50: 3.07 µM (inactive)
SK-MEL-5
  GI50: 24.3 µM (inactive)
SK-OV-3
  GI50: 15.5 µM (inactive)
SN12C
  GI50: 28.3 µM (inactive)
SNB-19
  GI50: 16 µM (inactive)
SR
  GI50: 54.6 µM (inactive)
SW-620
  GI50: 74.6 µM (inactive)
T47D
  GI50: 1.55 µM (inactive)
TK-10
  GI50: 18.7 µM (inactive)
U-251
  GI50: 15.5 µM (inactive)
UACC-257
  GI50: 27 µM (inactive)
UACC-62
  GI50: 16.1 µM (inactive)
UO-31
  GI50: 11.2 µM (inactive)
